From PubChem BioAssay (NCI)
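GI50 = concentration required for 50% inhibition of growth. TGI is the concentration that stops growth completely.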

Columns and labels:
Assay in all cases: NCI anticancer screen, dose series, 384-well format
SK-OV-3 ovarian = system: SK-OV-3 ovarian
SW-620 colon = system: SW-620 colon
OVCAR-5 ovarian = system: OVCAR-5 ovarian
SN12C renal = system: SN12C renal
OVCAR-8 ovarian = system: OVCAR-8 ovarian
T-47D breast = system: T-47D breast
A549 NSCLC = system: A549 NSCLC
SK-MEL-28 melanoma = system: SK-MEL-28 melanoma
UACC-257 melanoma = system: UACC-257 melanoma
SNB-75 CNS = system: SNB-75 CNS
COLO 205 colon = system: COLO 205 colon
EKVX NSCLC = system: EKVX NSCLC
CCRF-CEM leukemia = system: CCRF-CEM leukemia
SF-539 CNS = system: SF-539 CNS
SR leukemia = system: SR leukemia
A498 renal = system: A498 renal
U251 glioblastoma = system: U251 glioblastoma
NCI/ADR-RES ovarian = system: NCI/ADR-RES ovarian
OVCAR-4 ovarian = system: OVCAR-4 ovarian
TK-10 renal = system: TK-10 renal
RXF 393 renal = system: RXF 393 renal
HOP-62 NSCLC = system: HOP-62 NSCLC
HCT-116 colon = system: HCT-116 colon
LOX IMVI melanoma = system: LOX IMVI melanoma
HCC-2998 colon = system: HCC-2998 colon
MDA-MB-435 melanoma = system: MDA-MB-435 melanoma
UACC-62 melanoma = system: UACC-62 melanoma
RPMI-8226 leukemia = system: RPMI-8226 leukemia
MDA-MB-468 breast = system: MDA-MB-468 breast
HS 578T breast = system: HS 578T breast
MOLT-4 leukemia = system: MOLT-4 leukemia
UO-31 renal = system: UO-31 renal
IGROV1 ovarian = system: IGROV1 ovarian
MDA-MB-231 breast = system: MDA-MB-231 breast
HL-60(TB) leukemia = system: HL-60(TB) leukemia
M14 melanoma = system: M14 melanoma
PC-3 prostate = system: PC-3 prostate
NCI-H460 NSCLC = system: NCI-H460 NSCLC
NCI-H226 lung = system: NCI-H226 lung
MCF7 breast = system: MCF7 breast
HCT-15 colon = system: HCT-15 colon
NCI-H322M lung = system: NCI-H322M lung
SNB-19 CNS = system: SNB-19 CNS
NCI-H522 lung = system: NCI-H522 lung
SF-295 CNS = system: SF-295 CNS
NCI-H23 lung = system: NCI-H23 lung
CAKI-1 renal = system: CAKI-1 renal
SK-MEL-5 melanoma = system: SK-MEL-5 melanoma
DU-145 prostate = system: DU-145 prostate
SF-268 CNS = system: SF-268 CNS
KM12 colon = system: KM12 colon
HT29 colon = system: HT29 colon
OVCAR-3 ovarian = system: OVCAR-3 ovarian
MALME-3M melanoma = system: MALME-3M melanoma
HOP-92 NSCLC = system: HOP-92 NSCLC
ACHN renal = system: ACHN renal
786-0 renal = system: 786-0 renal
BT-549 breast = system: BT-549 breast

For `COc1cc(Nc2c(C#N)cnc3cc(OCCCN4CCN(C)CC4)c(OC)cc23)c(Cl)cc1Cl`, the GI50 (SK-OV-3 ovarian) was 416 nM, the TGI (SK-OV-3 ovarian) was 4210 nM and the GI50 (SW-620 colon) was 2620 nM. The TGI (SW-620 colon) was 5860 nM, the GI50 (OVCAR-5 ovarian) was 1840 nM and the TGI (OVCAR-5 ovarian) was 6660 nM. The GI50 (SN12C renal) was 301 nM, the TGI (SN12C renal) was 4140 nM and the GI50 (OVCAR-8 ovarian) was 1940 nM. For the same compound, the TGI (OVCAR-8 ovarian) was 5020 nM, the GI50 (T-47D breast) was 1340 nM and the TGI (T-47D breast) was 5410 nM. It also gave a GI50 (A549 NSCLC) of 1600 nM, a TGI (A549 NSCLC) of 4640 nM and a GI50 (SK-MEL-28 melanoma) of 1560 nM. For the same compound, the TGI (SK-MEL-28 melanoma) was 2980 nM, the GI50 (UACC-257 melanoma) was 1610 nM and the TGI (UACC-257 melanoma) was 2980 nM. For the same compound, the GI50 (SNB-75 CNS) was 951 nM, the TGI (SNB-75 CNS) was 3320 nM and the GI50 (COLO 205 colon) was 2010 nM. The TGI (COLO 205 colon) was 5450 nM, the GI50 (EKVX NSCLC) was 1570 nM and the TGI (EKVX NSCLC) was 5850 nM. For the same compound, the GI50 (CCRF-CEM leukemia) was 2040 nM, the TGI (CCRF-CEM leukemia) was 3640 nM and the GI50 (SF-539 CNS) was 1550 nM. The TGI (SF-539 CNS) was 2990 nM, the GI50 (SR leukemia) was 1370 nM and the TGI (SR leukemia) was 2680 nM. For the same compound, the GI50 (A498 renal) was 806 nM, the TGI (A498 renal) was 3610 nM and the GI50 (U251 glioblastoma) was 2100 nM. For the same compound, the TGI (U251 glioblastoma) was 4700 nM, the GI50 (NCI/ADR-RES ovarian) was 2140 nM and the TGI (NCI/ADR-RES ovarian) was 4660 nM. It also gave a GI50 (OVCAR-4 ovarian) of 1850 nM, a TGI (OVCAR-4 ovarian) of 4180 nM and a GI50 (TK-10 renal) of 584 nM. The TGI (TK-10 renal) was 3520 nM, the GI50 (RXF 393 renal) was 368 nM and the TGI (RXF 393 renal) was 1460 nM. It also gave a GI50 (HOP-62 NSCLC) of 1690 nM, a TGI (HOP-62 NSCLC) of 5020 nM and a GI50 (HCT-116 colon) of 1150 nM. It also gave a TGI (HCT-116 colon) of 2570 nM, a GI50 (LOX IMVI melanoma) of 637 nM and a TGI (LOX IMVI melanoma) of 2130 nM. The GI50 (HCC-2998 colon) was 2200 nM, the TGI (HCC-2998 colon) was 4350 nM and the GI50 (MDA-MB-435 melanoma) was 2120 nM. The TGI (MDA-MB-435 melanoma) was 5430 nM, the GI50 (UACC-62 melanoma) was 1440 nM and the TGI (UACC-62 melanoma) was 2880 nM. The GI50 (RPMI-8226 leukemia) was 898 nM, the TGI (RPMI-8226 leukemia) was 2350 nM and the GI50 (MDA-MB-468 breast) was 998 nM. It also gave a TGI (MDA-MB-468 breast) of 2660 nM, a GI50 (HS 578T breast) of 1290 nM and a TGI (HS 578T breast) of 4240 nM. It also gave a GI50 (MOLT-4 leukemia) of 612 nM, a TGI (MOLT-4 leukemia) of 2000 nM and a GI50 (UO-31 renal) of 476 nM. The TGI (UO-31 renal) was 2560 nM, the GI50 (IGROV1 ovarian) was 146 nM and the TGI (IGROV1 ovarian) was 899 nM. For the same compound, the GI50 (MDA-MB-231 breast) was 1410 nM, the TGI (MDA-MB-231 breast) was 2760 nM and the GI50 (HL-60(TB) leukemia) was 1390 nM. The TGI (HL-60(TB) leukemia) was 2720 nM, the GI50 (M14 melanoma) was 1160 nM and the TGI (M14 melanoma) was 2490 nM. The GI50 (PC-3 prostate) was 2580 nM, the TGI (PC-3 prostate) was 7120 nM and the GI50 (NCI-H460 NSCLC) was 1620 nM. It also gave a TGI (NCI-H460 NSCLC) of 5140 nM, a GI50 (NCI-H226 lung) of 2770 nM and a TGI (NCI-H226 lung) of 6250 nM. It also gave a GI50 (MCF7 breast) of 2400 nM, a TGI (MCF7 breast) of 5380 nM and a GI50 (HCT-15 colon) of 1140 nM. It also gave a TGI (HCT-15 colon) of 3740 nM, a GI50 (NCI-H322M lung) of 423 nM and a TGI (NCI-H322M lung) of 2360 nM. It also gave a GI50 (SNB-19 CNS) of 3510 nM, a TGI (SNB-19 CNS) of 9260 nM and a GI50 (NCI-H522 lung) of 133 nM. It also gave a TGI (NCI-H522 lung) of 2780 nM, a GI50 (SF-295 CNS) of 2680 nM and a TGI (SF-295 CNS) of 5770 nM. It also gave a GI50 (NCI-H23 lung) of 1690 nM, a TGI (NCI-H23 lung) of 4260 nM and a GI50 (CAKI-1 renal) of 431 nM. For the same compound, the TGI (CAKI-1 renal) was 2090 nM, the GI50 (SK-MEL-5 melanoma) was 1240 nM and the TGI (SK-MEL-5 melanoma) was 2540 nM. It also gave a GI50 (DU-145 prostate) of 645 nM, a TGI (DU-145 prostate) of 2850 nM and a GI50 (SF-268 CNS) of 1850 nM. It also gave a TGI (SF-268 CNS) of 5520 nM, a GI50 (KM12 colon) of 448 nM and a TGI (KM12 colon) of 4030 nM. The GI50 (HT29 colon) was 1430 nM, the TGI (HT29 colon) was 3590 nM and the GI50 (OVCAR-3 ovarian) was 1490 nM. For the same compound, the TGI (OVCAR-3 ovarian) was 5020 nM, the GI50 (MALME-3M melanoma) was 1040 nM and the TGI (MALME-3M melanoma) was 2470 nM. For the same compound, the GI50 (HOP-92 NSCLC) was 1100 nM, the TGI (HOP-92 NSCLC) was 2790 nM and the GI50 (ACHN renal) was 443 nM. It also gave a TGI (ACHN renal) of 4050 nM, a GI50 (786-0 renal) of 764 nM and a TGI (786-0 renal) of 2580 nM. For the same compound, the GI50 (BT-549 breast) was 1210 nM and the TGI (BT-549 breast) was 3310 nM.
